Experiments:
[1] = system: Undifferentiated hES lines H1 and H7; assay: Comparison of hES lines: total cell number after pGRN376 and GCV; format: cell-based, human; settings: mock-transduced cells
Experimental: Undifferentiated hES of lines designated H1 and H7 cells were plated into 24 well plates (1 confluent well of a 6 well plate split into 24 wells of a 24 well plate). […] Four h after addition of the viral vector, medium was exchanged for new mEF-CM; some wells received medium supplemented with 20 AM GCV. Cells exposed to GCV were re-fed with mEF-CM containing GCV daily for 3 days. On day 4 after the initiation of GCV treatment, wells were harvested and analyzed by flow cytometry to assess changes in total cell number.

[2] = system: Undifferentiated H1 hES cells; assay: Titration of GCV in TPAC vector treated hES cells; format: cell-based, human; settings: hES cells transduced with pGRN376 at MOI 30; 5, 10, 20, 30, 40 μM tested; day 2
Experimental: Undifferentiated H1 cells were plated into 24 well plates (1 confluent well of a 6 well plate split into 24 wells of a 24 well plate). After 48 h, some wells were infected with pGRN376 at an MOI of 30. Four h after addition of the viral vector, medium was exchanged for new mEF-CM; some wells received medium supplemented with 5, 10, 20, 30, or 40 μM ganciclovir (GCV). Cells exposed to GCV were re-fed with MEF-CM containing GCV daily for 2 days. On day 2 after the initiation of GCV treatment, wells were harvested and analyzed by flow cytometry to assess changes in total cell number, and cell viability (measured by PI exclusion).

[3] = system: tumor lines 143B, 293, HT1080, Bxpc-3', DAOY and NIH3T3; assay: Ganciclovir treatment in vitro of tk+ tumor lines carrying hTERT promoter/tk constructs; format: cell-based; settings: tk/+ stable clones or mass populations with pGRN266, pGRN267, pGRN268
Experimental: (§1) The ability of the hTERT promoter to specifically drive the expression of the thymidine kinase (tk) gene in tumor cells was tested using a variety of constructs: One construct, designated pGRN266, contains an EcoRI-FseI PCR fragment with the tk gene cloned into the EcoRI-FseI sites of pGRN263. pGRN263, containing approximately 2.5 kb of hTERT promoter sequence, is similar to pGRN150, but contains a neomycin gene as selection marker. pGRN267 contains an EcoRI-FseI PCR fragment with the tk gene cloned into the EcoRI-FseI sites of pGRN264. pGRN264, containing approximately 210 bp of hTERT promoter sequence, is similar to pGRN176, but contains a neomycin gene as selection marker. pGRN268 contains an EcoRI-XbaI PCR fragment with the tk gene cloned into the EcoRI-XbaI (unmethylated) sites of pGRN265. pGRN265, containing approximately 90 bp of hTERT promoter sequence, is similar to pGRN175, but contains a neomycin gene as selection marker.
(§2) These hTERT promoter/tk constructs, pGRN266, pGRN267 and pGRN268, were reintroduced into mammalian cells and tk/+stable clones (and/or mass populations) were selected. […] Ganciclovir treatment had no effect on normal BJ cells.

normal BJ cells = assay: Ganciclovir treatment in vitro of normal cells carrying hTERT promoter/tk constructs; format: cell-based
Experimental: as §1, §2

H9 hES cell line clones = assay: Ganciclovir sensitivity screen of stable GRN376mod-transfected hES clones; format: cell-based, human; settings: ten of ninety GRN376mod clones; ganciclovir at a concentration of 30 μg
From the text: To facilitate creation of stable cell lines genetically altered with the hTERT promoter/thymidine kinase construct, plasmid pGRN376 (Example X) was modified to delete most of the adenovirus sequence. The plasmid was digested with Stul and Not I, followed by blunting and re-ligation. The remaining vector contained the hTERT promoter/thymidine kinase construct, preceded by the transcription blocking sequence to prevent promotion of tk gene expression by promoter sequences upstream from the integration site in the genome. The modified vector was designated pGRN376mod.
Cultures of the H9 hES cell line were split 1:4 using PBS containing 0.5 mM EDTA, as described earlier, and plated in feeder-free culture in 6-well plates. Twenty-four hrs after plating, cells were cotransfected with 2 μg GRN376mod plus 0.5 μg of a plasmid encoding neomycin pho, using FuGENETM-6 as described above. Medium containing 200 μg/mL geneticin was added 48 h after transfection to select out transfected cells. After 7-10 days in geneticin-containing medium, 103 individual colonies were picked from the wells and individually plated in 24-well plates, which were then expanded by culturing for ˜7 days. Ninety individual clones were screened for sensitivity to the pro-drug ganciclovir at a concentration of 30 μg. […]

H1 hES cells = assay: Stable transfection of feeder-free hES cells with geneticin selection; format: cell-based, human; settings: 200 μg/mL in mEF-conditioned medium
Experimental: To investigate whether the feeder-free hES cells undergo stable genetic modification, H1 hES cells maintained on Matrigel® were cotransfected with a mixture of 7.5 μg plasmid carrying β-galactosidase driven by the EF1a promoter, and 2.5 μg of plasmid carrying the PGK promoter driving the neophosphotransferase gene. The cells were transfected 48 h after plating them on Matrigel® in mEF-conditioned medium. 10 μg of plasmid plus 15 μl of FuGENE™ were incubated with the cells in 1 mnL for 4 h before adding 2.5 mL of mEF-conditioned medium. After 48 h, medium was exchanged for mEF-conditioned medium supplemented with 200 μg/mL geneticin. Cultures were maintained in this geneticin-containing medium with daily medium exchange for over 21 days. All mock-transfected cultures (i.e., those that received FUGENE™ mixed with water rather than plasmid) died within 48-72 h. Drug resistant colonies arose in the wells transfected with both FUGENE™ and plasmid at a frequency of about 1 in to 10^5 originally transfected cells. The colonies were maintained in geneticin-containing mEF-conditioned medium and expanded.

hTERT = hTERT expression by RT-PCR after exposure to differentiation factors; format: cell-based, human; settings: after exposure of hES cells to the factor
Experimental: For radioactive relative quantification of individual gene products, QuantumRNA™ Alternate18S Internal Standard primers (Ambion, Austin Tex., USA) were employed according to the manufacturer's instructions. Briefly, the linear range of amplification of a particular primer pair was determined, then coamplified with the appropriate mixture of alternare18S primers:competimers to yield PCR products with coinciding linear ranges. Before addition of AmpliTaq™ (Roche) to PCR reactions, the enzyme was pre-incubated with the TaqStart™ antibody (ProMega) according to manufacturer's instructions. Radioactive PCR reactions were analyzed on 5% non-denaturing polyacrylamide gels, dried, and exposed to phosphoimage screens (Molecular Dynamics) for 1 hour. Screens were scanned with a Molecular Dynamics Storm 860 and band intensities were quantified using ImageQuant™ software. Results are expressed as the ratio of radioactivity incorporated into the hTERT or OCT-4 band, standardized to the radioactivity incorporated into the 18s band.
Primers and amplification conditions for particular markers are as follows.

hES cells = assay: Neuron formation from directly differentiated hES cells with neurotrophin growth factors (count of β-tubulin positive cells); format: cell-based, human; settings: fixed after 7 days of differentiation
Experimental: The effect of several members of the neurotrophin growth factor family was examined. hES cells were differentiated by harvesting with collagenase, dissociating, and reseeding onto poly-ornithine coated cover slips. The cells were plated into DMEM/F12+N2+10% FBS overnight. The following day, the serum was removed from the medium and replaced with 10 ng/mL human bFGF and the growth factor being tested. After 24 hours, bFGF was removed from the medium. These cultures were fed every other day. They were fixed after 7 days of differentiation and immunostained for analysis. The number of neurons was evaluated by counting cells positive for β-tubulin. Cultures maintained in the presence of 10 ng/mL brain derived neurotrophic factor (BDNF) formed approximately 3-fold more neurons than the control cultures. Cultures maintained in neurotrophin-3 (1 ng/mL) formed approximately 2-fold more neurons than control cultures.

Question: `Nc1nc(O)c2ncn(COC(CO)CO)c2n1` [ganciclovir] was tested. Which “toxicity induced by GCV alone, H7 compared with H1” value [1] did it give?
Answer: less toxicity

Question: What about the “optimal GCV concentration” value [2] of the same molecule?
Answer: ~20 µM

Question: And the “effect of ganciclovir treatment on tk+ tumor lines” value [3]?
Answer: selective destruction of all tumor lines tested

Question: What about the “effect of ganciclovir treatment on normal cells” value (normal BJ cells) of the same molecule?
Answer: no effect

Question: And the “time in which essentially all undifferentiated cells died” value (H9 hES cell line clones)?
Answer: 1 to 3 days

Question: How did the “time in which all mock-transfected cultures died” value (H1 hES cells) turn out when `CN[C@@H]1[C@@H](O)[C@@H](O[C@@H]2[C@@H](O)[C@H](O[C@H]3O[C@H]([C@@H](C)O)[C@@H](O)[C@H](O)[C@H]3N)[C@@H](N)C[C@H]2N)OC[C@]1(C)O` [geneticin] was run?
Answer: 48 to 72 h

Question: Which “expression of hTERT” value (hTERT) does the source give for `C[S+](C)[O-]` [dimethyl sulfoxide] here?
Answer: markedly decreased

B1: brain derived neurotrophic factor (protein, UniProt P23560 19-247, looked up)
Neurotrophic factor BDNF …: APMKEANIRGQGGLAYPGVRTHGTLESVNGPKAGSRGLTSLADTFEHVIEELLDEDQKVRPNEENNKDADLYTSRVMLSSQVPLEPPLLFLLEEYKNYLDAANMSMRVRRHSDPARRGELSVCDSISEWVTAADKKTAVDMSGGTVTVLEKVPVSKGQLKQYFYETKCNPMGYTKEGCRGIDKRHWNSQCRTTQSYVRALTMDSKKRIGWRFIRIDTSCVCTLTIKRGR
notes: neurotrophin growth factor
Question: For B1, which “neurons formed relative to control cultures (cells positive for β-tubulin)” value (hES cells; 10 ng/mL) is on record?
Answer: approximately 3 fold

B2: neurotrophin-3 (protein, UniProt P20783 139-257, looked up)
Neurotrophin-3: YAEHKSHRGEYSVCDSESLWVTDKSSAIDIRGHQVTVLGEIKTGNSPVKQYFYETRCKEARPVKNGCRGIDDKHWNSQCKTSQTYVRALTSENNKLVGWRWIRIDTSCVCALSRKIGRT
notes: neurotrophin growth factor
Question: How did the “neurons formed relative to control cultures (cells positive for β-tubulin)” value (hES cells; 1 ng/mL) turn out when B2 was run?
Answer: approximately 2 fold
